Measured values as given in US20040186077A1, “Novel heteroaryl phosphonates as cardioprotective agents” (Medicure International Inc., priority 2003, published 2004).

Tested on: Male Wistar rats
Experiment: Ischemia reperfusion: LAD occlusion and reperfusion, infarct size as percentage of AAR
Format: in vivo
Conditions: 32 mg/kg i.v. bolus 5 min before ischemia; regional myocardial ischemia 25 min, reperfusion 2 h; P=0.047 unpaired t-test; vehicle infarct size 56±3% of the AAR
Procedure: Male Wistar rats (200-300 g, Tuck, Rayleigh, Essex, U.K.) were anesthetised with thiopentone sodium (Intraval®, 120 mg/kg i.p.; Rhone-Merrieux, Essex, U.K.). The rats were tracheotomised, intubated and ventilated with a Harvard ventilator (70 strokes/min, tidal volume: 8-10 mL/kg, inspiratory oxygen concentration: 30%). Body temperature was maintained at 38±1° C. The right carotid artery was cannulated and connected to a pressure transducer (MLT 1050, AD Instruments Ltd, Hastings, UK) to monitor mean arterial blood pressure (MAP) and heart rate (HR), which were continuously recorded on a data acquisition system such as Powerlab® Version 4.0.4, AD Instruments, Hastings, UK. The right jugular vein was cannulated for drug administration and the administration of Evans Blue dye (at the end of the experiment). A lateral thoracotomy was performed and the heart was suspended in a temporary pericardial cradle. A snare occluder was placed around the left anterior descending coronary artery (LAD). After completion of the surgical procedure the animals were allowed to stabilise for 30 min before LAD ligation. Five minutes prior to the onset of myocardial ischemia, a bolus injection (i.v.) of either vehicle or phosphonate was administered. The coronary artery was occluded at time 0 by tightening of the occluder. […]

SMILES: Cc1nc(-c2ccccc2)c(C(F)P(=O)(O)O)c(CO)c1O (stereo not shown) [Compound 38, [Fluoro-(5-hydroxy-4-hydroxymethyl-6-methyl-2-phenyl-pyridin-3-yl)-methyl]-phosphonic acid]
- myocardial infarct size: reduced myocardial infarct size
